In publication PMC8600679, “Substituted Two- to Five-Ring Polycyclic Aromatic Compounds Are Potent Agonists of Atlantic Cod (Gadus morhua) Aryl Hydrocarbon Receptors Ahr1a and Ahr2a” (Environmental Science & Technology, 2021):

molecular target: Atlantic cod Ahr1a (Gadus morhua, UniProt A0A6H1Z2L5); experiment: cell-based; conditions: COS-7 cells, 24 h exposure; read-out: Ahr1a EC50
Sequence (A0A6H1Z2L5 1-957): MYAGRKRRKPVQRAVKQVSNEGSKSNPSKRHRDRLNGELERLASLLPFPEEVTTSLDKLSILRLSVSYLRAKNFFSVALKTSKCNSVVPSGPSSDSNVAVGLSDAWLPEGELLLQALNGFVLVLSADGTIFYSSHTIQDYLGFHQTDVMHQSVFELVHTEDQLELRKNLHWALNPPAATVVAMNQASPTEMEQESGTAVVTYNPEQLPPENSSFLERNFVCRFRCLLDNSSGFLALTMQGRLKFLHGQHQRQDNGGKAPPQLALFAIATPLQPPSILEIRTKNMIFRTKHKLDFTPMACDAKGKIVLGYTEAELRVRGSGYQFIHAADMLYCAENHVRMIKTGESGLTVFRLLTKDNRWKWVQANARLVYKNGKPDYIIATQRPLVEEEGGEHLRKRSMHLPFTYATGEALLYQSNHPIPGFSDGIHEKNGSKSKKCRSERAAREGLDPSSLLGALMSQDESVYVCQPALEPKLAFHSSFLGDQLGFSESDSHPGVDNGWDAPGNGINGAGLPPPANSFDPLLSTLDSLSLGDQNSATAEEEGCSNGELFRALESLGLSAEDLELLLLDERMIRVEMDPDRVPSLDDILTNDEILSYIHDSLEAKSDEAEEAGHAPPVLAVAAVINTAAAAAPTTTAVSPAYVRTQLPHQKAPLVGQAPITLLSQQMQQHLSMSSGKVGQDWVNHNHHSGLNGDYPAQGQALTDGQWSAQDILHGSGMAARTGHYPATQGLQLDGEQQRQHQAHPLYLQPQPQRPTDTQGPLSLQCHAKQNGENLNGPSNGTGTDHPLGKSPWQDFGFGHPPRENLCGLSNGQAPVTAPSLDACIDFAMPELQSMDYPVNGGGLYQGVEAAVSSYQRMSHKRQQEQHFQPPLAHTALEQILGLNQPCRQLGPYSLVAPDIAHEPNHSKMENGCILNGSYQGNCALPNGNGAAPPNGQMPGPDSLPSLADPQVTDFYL
Sequence (A0A8C5CZZ9 1-645 partner): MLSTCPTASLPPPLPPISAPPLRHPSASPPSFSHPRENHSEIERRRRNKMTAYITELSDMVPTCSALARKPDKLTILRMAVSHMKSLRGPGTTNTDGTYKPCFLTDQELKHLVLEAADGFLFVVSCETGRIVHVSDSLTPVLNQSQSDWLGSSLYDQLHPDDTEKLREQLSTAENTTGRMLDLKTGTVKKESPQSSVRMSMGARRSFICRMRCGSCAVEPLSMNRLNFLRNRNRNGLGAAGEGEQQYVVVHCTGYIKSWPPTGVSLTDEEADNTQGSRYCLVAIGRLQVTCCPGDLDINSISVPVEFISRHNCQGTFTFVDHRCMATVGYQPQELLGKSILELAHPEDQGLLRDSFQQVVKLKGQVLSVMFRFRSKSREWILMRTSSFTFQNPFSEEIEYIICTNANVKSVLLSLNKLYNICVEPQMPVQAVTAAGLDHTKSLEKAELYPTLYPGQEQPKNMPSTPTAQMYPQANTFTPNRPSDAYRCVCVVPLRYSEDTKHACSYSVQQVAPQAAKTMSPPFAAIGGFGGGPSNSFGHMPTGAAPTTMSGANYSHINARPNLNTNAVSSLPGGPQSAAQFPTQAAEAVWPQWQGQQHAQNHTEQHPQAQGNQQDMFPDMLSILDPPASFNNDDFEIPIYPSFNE

Row | Structure (SMILES) | EC50 [nM]
1 | COc1cccc2ccc3c4ccccc4ccc3c12 [4-MOC, 4-Methoxychrysene] | 43.8
2 | Cc1cc2ccccc2c2ccc3ccccc3c12 [5-MC, 5-Methylchrysene] | 596
3 | c1ccc2c(c1)ccc1c3ccccc3ccc21 [CHR, Chrysene] | 481

same assay, conditions: EC25 of TCDD divided by concentration of PAC giving 25% of TCDD response

Row | Structure (SMILES) | Ahr1a REP25
4 | COc1cccc2ccc3c4ccccc4ccc3c12 [4-MOC, 4-Methoxychrysene] | 0.033
5 | Cc1cc2ccccc2c2ccc3ccccc3c12 [5-MC, 5-Methylchrysene] | 0.00494
6 | Cc1cc2c3ccccc3ccc2c2ccccc12 [6-MC, 6-Methylchrysene] | 0.00064
7 | c1ccc2c(c1)ccc1c3ccccc3ccc21 [CHR, Chrysene] | 0.00052

same assay, conditions: Supplementary Table S5; read-out: Potency (EC50, nM) Ahr1a

Row | Structure (SMILES) | EC50 [nM]
8 | Cc1cc2ccccc2c2ccc3ccccc3c12 [5-MC, 5-Methylchrysene] | 596
9 | Cc1cc2c3ccccc3ccc2c2ccccc12 [6-MC, 6-Methylchrysene] | 3540
10 | c1ccc2c(c1)ccc1c3ccccc3ccc21 [CHR, Chrysene] | 481

same assay, conditions: Welch's t-test, Supporting Table S6

Row | Structure (SMILES) | Efficacy compared to TCDD with Ahr1a
11 | COc1cccc2ccc3c4ccccc4ccc3c12 [4-MOC, 4-Methoxychrysene] | lower efficacies than TCDD
12 | Cc1cc2ccccc2c2ccc3ccccc3c12 [5-MC, 5-Methylchrysene] | efficacies similar to that of TCDD
13 | Cc1cc2c3ccccc3ccc2c2ccccc12 [6-MC, 6-Methylchrysene] | efficacies similar to that of TCDD
14 | c1ccc2c(c1)ccc1c3ccccc3ccc21 [CHR, Chrysene] | lower efficacies than TCDD

same assay, conditions: in vitro transactivation

Row | Structure (SMILES) | Activation of Ahr1a (agonist or not)
15 | Cc1cc2ccc3ccccc3c2cc1C [2,3-DMP, 2,3-Dimethylphenanthrene] | did not activate
16 | c1ccc2c(c1)ccc1c3ccccc3ccc21 [CHR, Chrysene] | solely activate Ahr1a

same assay, conditions: percent of maximum efficacy determined for TCDD; COS-7 cells, 24 h exposure; None = no agonistic response significantly different from solvent

Row | Structure (SMILES) | Ahr1a Relative Emax (%)
17 | Cc1cc2ccc3ccccc3c2cc1C [2,3-DMP, 2,3-Dimethylphenanthrene] | None

same assay, conditions: percent of maximum efficacy determined for TCDD; COS-7 cells, 24 h exposure; None = no agonistic response significantly different from solvent; read-out: Ahr1a Relative Emax (%)

Row | Structure (SMILES) | Emax [%]
18 | COc1cccc2ccc3c4ccccc4ccc3c12 [4-MOC, 4-Methoxychrysene] | 83.8
19 | Cc1cc2ccccc2c2ccc3ccccc3c12 [5-MC, 5-Methylchrysene] | 90.1
20 | Cc1cc2c3ccccc3ccc2c2ccccc12 [6-MC, 6-Methylchrysene] | 90.6
21 | c1ccc2c(c1)ccc1c3ccccc3ccc21 [CHR, Chrysene] | 40.8

molecular target: T1, Atlantic cod Ahr2a (Gadus morhua, UniProt A0A6H1Z3G8); experiment: cell-based; conditions: Ahr2a versus Ahr1a
T1 sequence (A0A6H1Z3G8 1-1127): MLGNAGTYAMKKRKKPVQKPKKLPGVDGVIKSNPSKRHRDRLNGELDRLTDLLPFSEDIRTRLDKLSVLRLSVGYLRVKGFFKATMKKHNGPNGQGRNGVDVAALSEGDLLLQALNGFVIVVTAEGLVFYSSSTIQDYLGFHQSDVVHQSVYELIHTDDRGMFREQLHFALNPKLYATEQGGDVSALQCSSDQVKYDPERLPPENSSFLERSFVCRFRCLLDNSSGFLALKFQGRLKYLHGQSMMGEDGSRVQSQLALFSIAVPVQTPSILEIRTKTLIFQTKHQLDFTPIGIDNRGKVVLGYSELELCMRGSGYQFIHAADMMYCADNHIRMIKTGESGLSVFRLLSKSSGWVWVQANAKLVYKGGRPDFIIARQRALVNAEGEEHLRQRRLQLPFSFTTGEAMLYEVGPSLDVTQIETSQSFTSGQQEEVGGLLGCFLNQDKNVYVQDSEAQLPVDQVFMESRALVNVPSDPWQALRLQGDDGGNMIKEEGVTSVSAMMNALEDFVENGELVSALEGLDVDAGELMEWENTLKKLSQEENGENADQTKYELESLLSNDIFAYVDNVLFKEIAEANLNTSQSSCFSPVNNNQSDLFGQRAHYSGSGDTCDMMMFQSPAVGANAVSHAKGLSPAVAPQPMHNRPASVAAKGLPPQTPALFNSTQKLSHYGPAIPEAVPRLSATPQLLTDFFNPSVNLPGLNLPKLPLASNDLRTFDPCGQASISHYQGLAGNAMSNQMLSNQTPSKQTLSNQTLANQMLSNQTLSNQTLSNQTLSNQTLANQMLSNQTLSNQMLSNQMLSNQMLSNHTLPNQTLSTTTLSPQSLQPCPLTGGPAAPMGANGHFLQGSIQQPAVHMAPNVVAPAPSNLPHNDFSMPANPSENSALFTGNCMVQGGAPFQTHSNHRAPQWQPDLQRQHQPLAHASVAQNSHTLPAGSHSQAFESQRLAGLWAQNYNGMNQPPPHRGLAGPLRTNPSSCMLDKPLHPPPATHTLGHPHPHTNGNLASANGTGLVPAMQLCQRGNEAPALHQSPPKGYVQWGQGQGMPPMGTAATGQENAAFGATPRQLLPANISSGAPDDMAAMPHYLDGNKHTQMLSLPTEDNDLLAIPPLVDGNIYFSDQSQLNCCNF

Row | Structure (SMILES) | fold higher REP25 with Ahr2a compared to Ahr1a
22 | COc1cccc2ccc3c4ccccc4ccc3c12 [4-MOC, 4-Methoxychrysene] | 5- to 10 fold
23 | Cc1cc2ccccc2c2ccc3ccccc3c12 [5-MC, 5-Methylchrysene] | 5- to 10 fold
24 | Cc1cc2c3ccccc3ccc2c2ccccc12 [6-MC, 6-Methylchrysene] | 5- to 10 fold

same assay, conditions: COS-7; Supplementary Table S5; read-out: Efficacy (Emax, %) Ahr2a

Row | Structure (SMILES) | Emax [%]
25 | c1ccc2c(c1)ccc1c3ccccc3ccc21 [CHR, Chrysene] | 3.6

same assay, conditions: COS-7 cells, 24 h exposure; read-out: Ahr2a EC50

Row | Structure (SMILES) | EC50 [nM]
26 | COc1cccc2ccc3c4ccccc4ccc3c12 [4-MOC, 4-Methoxychrysene] | 30.9
27 | Cc1cc2ccccc2c2ccc3ccccc3c12 [5-MC, 5-Methylchrysene] | 193
28 | Cc1cc2c3ccccc3ccc2c2ccccc12 [6-MC, 6-Methylchrysene] | 2260

same assay, conditions: EC25 of TCDD divided by concentration of PAC giving 25% of TCDD response

Row | Structure (SMILES) | Ahr2a REP25
29 | COc1cccc2ccc3c4ccccc4ccc3c12 [4-MOC, 4-Methoxychrysene] | 0.206
30 | Cc1cc2ccccc2c2ccc3ccccc3c12 [5-MC, 5-Methylchrysene] | 0.0495
31 | Cc1cc2c3ccccc3ccc2c2ccccc12 [6-MC, 6-Methylchrysene] | 0.0031

same assay, conditions: Supplementary Table S5; read-out: Potency (EC50, nM) Ahr2a

Row | Structure (SMILES) | EC50 [nM]
32 | Cc1cc2ccccc2c2ccc3ccccc3c12 [5-MC, 5-Methylchrysene] | 193
33 | Cc1cc2c3ccccc3ccc2c2ccccc12 [6-MC, 6-Methylchrysene] | 88.8
34 | c1ccc2c(c1)ccc1c3ccccc3ccc21 [CHR, Chrysene] | 3440

same assay, conditions: Welch's t-test, Supporting Table S6

Row | Structure (SMILES) | Efficacy compared to TCDD via Ahr2a
35 | Cc1cc2ccccc2c2ccc3ccccc3c12 [5-MC, 5-Methylchrysene] | lower efficacies in comparison to TCDD
36 | c1ccc2c(c1)ccc1c3ccccc3ccc21 [CHR, Chrysene] | lower efficacies in comparison to TCDD

same assay, conditions: in vitro transactivation

Row | Structure (SMILES) | Activation of Ahr2a (agonist or not)
37 | Cc1cc2ccc3ccccc3c2cc1C [2,3-DMP, 2,3-Dimethylphenanthrene] | did not activate
38 | c1ccc2c(c1)ccc1c3ccccc3ccc21 [CHR, Chrysene] | solely activate Ahr1a

same assay, conditions: percent of maximum efficacy determined for TCDD; COS-7 cells, 24 h exposure; None = no agonistic response significantly different from solvent

Row | Structure (SMILES) | Ahr2a Relative Emax (%)
39 | Cc1cc2ccc3ccccc3c2cc1C [2,3-DMP, 2,3-Dimethylphenanthrene] | None
40 | c1ccc2c(c1)ccc1c3ccccc3ccc21 [CHR, Chrysene] | None

same assay, conditions: percent of maximum efficacy determined for TCDD; COS-7 cells, 24 h exposure; None = no agonistic response significantly different from solvent; read-out: Ahr2a Relative Emax (%)

Row | Structure (SMILES) | Emax [%]
41 | COc1cccc2ccc3c4ccccc4ccc3c12 [4-MOC, 4-Methoxychrysene] | 93.7
42 | Cc1cc2ccccc2c2ccc3ccccc3c12 [5-MC, 5-Methylchrysene] | 68.4
43 | Cc1cc2c3ccccc3ccc2c2ccccc12 [6-MC, 6-Methylchrysene] | 89.8

test system: COS-7 cells; experiment: Resazurin reduction viability assay; assay type: cell-based, simian; conditions: highest concentrations used; relative to 0.5% DMSO solvent control
Procedure: COS-7 simian kidney cells were seeded onto 96 well plates (10 000 cells/well) in Dulbecco’s modified Eagle’s medium (DMEM) with phenol red, supplemented with 10% fetal bovine serum (FBS), 4 mM L-glutamate, 1 mM sodium pyruvate, and 100 U/mL penicillin–streptomycin (Merck KGaA, Darmstadt, Germany), and cultivated at 37 °C with 5% CO2 for 24 h. Cells were transiently co-transfected with a eukaryotic expression plasmid (pcDNA3.1/Zeo(+), 31 ng/well), pcDNA3.1/Zeo(+)-based plasmids encoding gmAhr1a or gmAhr2a (3 ng/well), gmArnt1 (6 ng/well),[37] a luciferase reporter plasmid containing four DREs (pGudLuc6.1, 30 ng/well), and a β-galactosidase normalization plasmid (pCMV-βGAL, 30 ng/well),[45],[46] using a Mirus TransIT LT-1 transfection reagent according to the recommendations of the supplier. COS-7 cells were seeded and cultivated in DMEM (4500 mg/L glucose), supplemented with 10% FBS, 1 mM sodium pyruvate, and 4 mM L-glutamine. In the exposure medium, FBS was substituted with 10% charcoal-stripped FBS (VWR International, Radnor). To create the exposure media with the highest test concentration, compounds solved in dimethyl sulfoxide (DMSO) were diluted 1:200 in exposure medium, resulting in exposure media with 1× test compound and 0.5% DMSO. The highest concentration exposure media were serially diluted five times (1:2 for the first dilution, then 1:5) in exposure medium supplemented with 0.5% DMSO. Following transfection, cells were incubated in exposure media containing PACs or solvent control (0.5% DMSO) for 24 h. Reporter gene assays were repeated at least three times and with three technical replicates per exposure. TCDD (30 pM to 100 nM) was used as a known agonist in each experiment. Absorbance and luminescence measurements were performed on an EnSpire Multimode plate reader (PerkinElmer, Waltham, MA). While no wavelength filtering was used to measure firefly luciferase activity by luminescence, absorbance measurements to quantify β-galactosidase activity were performed at 420 nm wavelength. The viability of exposed cells was evaluated using the resazurin reduction assay as previously described.[47],[48]
Recorded luminescence was normalized for variation in transfection efficiencies using β-galactosidase enzyme activity. The difference in normalized light units measured in lysates from exposed cells to solvent-exposed cells was calculated and expressed relative to the maximum response in TCDD-exposed cells. Response curves were prepared by nonlinear regression analyses in Prism v7 and used for the determination of half-maximal effective concentration values (EC50) and maximum efficacies (Emax). EC50 values were only determined for compounds that produced a sigmoidal concentration–response curve. Relative effect potencies 25 (REP25) were determined by dividing the EC25 of TCDD by the concentration of PAC necessary to produce a response equal to 25% of the response of TCDD with gmAhrs, essentially as described by Villeneuve et al. and Lam et al.[49],[50] The D’Agostino–Pearson (Ahr activation data) or Kolmogorov–Smirnov (viability data) normality tests were used to confirm the normal distribution of the data. One-way analysis of variance (ANOVA) and Dunnett′s test were used to compare responses at different concentrations of compounds and solvent control mediated via the same Ahr, in addition to comparing metabolic activity in PAC-exposed cells and cells exposed to solvent control in the resazurin reduction assay. Welch′s t-test was used to compare the maximum Ahr-mediated response and potency (Emax and EC50) between Ahr1a or Ahr2a produced by the same test compound (Prism v7).

Row | Structure (SMILES) | Metabolic activity (cell viability) of exposed COS-7 cells
44 | Cc1cc2ccc3ccccc3c2cc1C [2,3-DMP, 2,3-Dimethylphenanthrene] | slight reduction in metabolic activities
45 | COc1cccc2ccc3c4ccccc4ccc3c12 [4-MOC, 4-Methoxychrysene] | slight reduction in metabolic activities
46 | Cc1cc2ccccc2c2ccc3ccccc3c12 [5-MC, 5-Methylchrysene] | slight reduction in metabolic activities
47 | Cc1cc2c3ccccc3ccc2c2ccccc12 [6-MC, 6-Methylchrysene] | slight reduction in metabolic activities

test system: not given; experiment: not given; set-up: method as in PMID 29505926; conditions: from TEF values; cited from earlier work

Row | Structure (SMILES) | agonistic potential, times higher than CHR [times]
48 | Cc1cc2ccccc2c2ccc3ccccc3c12 [5-MC, 5-Methylchrysene] | 100

same assay, conditions: toxic potential relative to the toxicity of BAP; cited from earlier work

Row | Structure (SMILES) | toxic equivalent factor (TEF)
49 | Cc1cc2ccccc2c2ccc3ccccc3c12 [5-MC, 5-Methylchrysene] | 1.0
50 | c1ccc2c(c1)ccc1c3ccccc3ccc21 [CHR, Chrysene] | 0.01
